Article PMC9388906, “Dual inhibition of the Echinococcus multilocularis energy metabolism” (Frontiers in Veterinary Science, 2022)

Assays:
Type in all cases: cell-based, Echinococcus multilocularis
[1] = test system: E. multilocularis metacestodes; assay: Transmission electron microscopy of treated metacestodes; conditions: 5 days
Description: E. multilocularis metacestodes treated with ELQ-400 (0.2, 1 and 2 μM, 5 days of incubation) under normoxic (37°C, 21% O2, 5% CO2, humid atmosphere) and anaerobic conditions (37°C, 80% N2, 10% CO2, and 10% H2, humid atmosphere) were processed for TEM as previously described ([17]). Metacestodes were washed in 100 mM sodium cacodylate buffer (pH 7.3), and were fixed in 2% glutaraldehyde in cacodylate buffer overnight at 4°C. Following several washes in cacodylate buffer, metacestodes were post-fixed in 2% osmium tetroxide in cacodylate buffer for 3–4 h, washed in water, and samples were treated with Uranyless™ solution (EMS, Hatfield, PA, USA) for 20 min, followed by several washes in distilled water. Specimens were dehydrated in a graded series of ethanol and were embedded in EPON-812 epoxy resin. Polymerization of the resin was carried out at 60°C for 24 h. Ultrathin sections were cut on a Reichert and Jung (Vienna) microtome, and were allowed to settle onto 400 mesh formvar carbon coated grids (Plano GmbH, Wetzlar, Germany). Specimens were contrasted with Uranyless and lead citrate, and were viewed on a FEI Morgagni Transmission Electron Microscope operating at 80 kV.

[2] = test system: E. multilocularis metacestodes (isolate H95); assay: PGI assay (damage marker release), metacestodes, isolate H95; conditions: isolate H95, 5 days
Description: (§1) To assess the in vitro efficacy of ELQs against E. multilocularis, (a) the damage-marker phosphoglucose isomerase (PGI) assay was applied against metacestodes, and (b) the germinal layer (GL) cell viability assay was applied to measure effects on isolated GL cells. Both assays are described in more detail below. The drug testing strategy was as follows: PGI assay was first conducted for overview screening at 10 μM with the parasite isolates H95 and Sval. The GL cell viability assay was performed at 0.1 μM with both isolates H95 and Sval.
The PGI assay measures the amount of PGI that metacestodes release into the medium when damaged ([17], [32]). The purification and in vitro drug incubation of E. multilocularis metacestodes was conducted according to Stadelmann et al. ([32]). In short, cultures were applied for in vitro drug testing at the age of 6-8 weeks. E. multilocularis metacestodes were therefore purified by the addition of 2% saccharose and washed extensively with PBS. Purified metacestodes were suspended 1:3 with DMEM (without phenol red, supplemented with 100 U/mL penicillin, 100 μg/mL streptomycin) and distributed in 48-well plates (1 mL/well, thus 300 μL pure metacestode vesicles per well). […] The corresponding DMSO concentration was used as negative control and Tx-100 (0.1% final concentration) was used for total damage (positive control). […] After 5 days, relative PGI activities were measured and calculated as percentage of the Tx-100 control as described previously in Rufener et al. ([17]). They were calculated as mean values and standard deviations for each triplicate. […] EC50 measurements were performed twice, and averages and standard deviations of these repeated tests are given.

[3] = test system: E. multilocularis GL cells (isolate H95); assay: GL cell viability assay (CellTiter-Glo), isolate H95; conditions: isolate H95; 0.1 μM; 5 days; nitrogen atmosphere; mean (SD); active if <30%
Description: as §1
(§2) The isolation of E. multilocularis GL cells was done as described previously ([17]) with minor modifications. Fifteen units of GL cells were distributed to each well of a 384 well plate in a total volume of 12.5 μL conditioned medium. The different ELQs were added to the wells to 0.1 μM, in quadruplicates. As a negative control 0.1% DMSO was used. The 384-well plate was incubated for 5 days at 37°C under humid nitrogen atmosphere. Thereafter, viability of the GL cells under different drug treatments was assessed by CellTiter-Glo® (Promega AG, Dübendorf, Switzerland). The CellTiter-Glo reagent was complemented with 1% Tx-100. The luciferase bioluminescence was measured at 530 nm by using the Enspire multilabel reader (PerkinElmer Life Sciences, Schwerzenbach, Switzerland). Using Microsoft Excel, the blank values were subtracted from the experimental values and the relative viability compared to DMSO was calculated. Viabilities were calculated as mean values and standard deviations for each quadruplicate.

[4] = test system: E. multilocularis GL cells (isolate Sval); assay: GL cell viability assay (CellTiter-Glo), isolate Sval; conditions: isolate Sval; 0.1 μM; 5 days; nitrogen atmosphere; mean (SD); active if <30%
Description: as §1, §2

Cc1[nH]c2cc(F)cc(F)c2c(=O)c1-c1ccc(Oc2ccc(OC(F)(F)F)cc2)cc1 [ELQ-400]
Ultrastructural effects on metacestodes (TEM) ([1]; 0.2 μM, normoxic (21% O2)): did not show obvious ultrastructural alterations
Ultrastructural effects on metacestodes (TEM): overall structural organization, especially of the GL ([1]; 1 μM, normoxic (21% O2)): partially compromised
Ultrastructural effects on metacestodes (TEM) ([1]; 2 μM, normoxic (21% O2)): partial separation of the GL and the LL
Ultrastructural effects on metacestodes (TEM) ([1]; anaerobic conditions, compared with damage at 1 and 2 μM under normoxic conditions): did not exhibit such alterations
Metacestodes, PGI assay, relative to positive control Tx-100 ([2]; 10 μM, normoxic, mean (SD) of triplicates, active if >20%): 21.4 (2.5) %
EC50 ([2]; PGI assay, range tested 30–0.12 μM, mean (SD) of two tests, read-out: EC50 metacestodes): 1060 nM
GL cells, viability via ATP measurements, relative to DMSO control [3]: 8.4 (4.8) %
GL cells, viability via ATP measurements, relative to DMSO control [4]: 14.6 (8.6) %
